# Tested on: rhinovirus infection-induced inflammatory markers (IL-6, IP-10, and RANTES) in BEAS-2B
# Assay: rhinovirus infection-induced inflammatory markers in RV-16 infected BEAS-2B cells
# Format: cell-based, human
# Conditions: ibuprofen (20 µM) added with a subset of compounds at time of infection; two days post-infection; in a majority of instances
# Protocol: The effect of various identified compounds on rhinovirus infection-induced inflammatory markers (IL-6, IP-10, and RANTES) in the human bronchial epithelia cell line, BEAS-2B, was evaluated. Kaempferol, luteolin, quercetin, scutellarein, all-transretinoic acid, 3-hydroxyflavone, fustin, 3-methylquercetin, fisetin, apigenin, oxymetazoline HCl, chrysin, naringenin, pyrrolidinedithiocarbamate ammonium, 7-hydroxyflavone, myricetin, diosmetin, 4′,7-dihydroxyflavone, or eriodictyol was added to cell culture media at various doses at the time of RV-16 infection of BEAS-2B cells. IL-6, IP-10 and RANTES protein levels were measured three days post-infection. Cytotoxicity of the compounds was determined by the uptake of vital dye Rhinovirus infected BEAS-2B cells not exposed to the compounds served as a positive control, achieving maximum cytokine production. BEAS-2B cells not exposed to rhinovirus or the compounds served as a negative control. […] The study was repeated for a subset of compounds, and ibuprofen (20 µM) was added to the cell media with the compounds at the time of infection. IL-6, IP-10 and RANTES protein levels were measured two days post-infection.
row,Compound,"levels of biomarkers associated with rhinovirus infection (IL-6, IP-10 and RANTES protein levels)"
1,CC(C)Cc1ccc(C(C)C(=O)O)cc1 (centres unmarked) [ibuprofen],further reduced

# Same assay, conditions: result in words
row,Compound,anti-inflammatory effects in the rhinovirus infection mediated inflammation model
1,3-methylquercetin,anti-inflammatory effects
2,O=c1c(O)c(-c2ccccc2)oc2ccccc12 [3-hydroxyflavone],anti-inflammatory effects
3,"O=c1cc(-c2ccc(O)cc2)oc2cc(O)ccc12 [4′,7-dihydroxyflavone]",anti-inflammatory effects
4,O=c1cc(-c2ccccc2)oc2cc(O)ccc12 [7-hydroxyflavone],anti-inflammatory effects
5,O=c1cc(-c2ccc(O)cc2)oc2cc(O)cc(O)c12 [Apigenin],anti-inflammatory effects
6,O=c1c(O)c(-c2cc(O)c(O)c(O)c2)oc2cc(O)cc(O)c12 [Myricetin],anti-inflammatory effects
7,CC1=C(/C=C/C(C)=C/C=C/C(C)=C/C(=O)O)C(C)(C)CCC1 [all-transretinoic acid],anti-inflammatory effects
8,O=c1c(-c2ccc(O)cc2)coc2cc(O)ccc12 [daidzein],anti-inflammatory effects
9,COc1ccc(-c2cc(=O)c3c(O)cc(O)cc3o2)cc1O [diosmetin],anti-inflammatory effects
10,O=C1C[C@@H](c2ccc(O)c(O)c2)Oc2cc(O)cc(O)c21 [eriodictyol],anti-inflammatory effects
11,O=c1c(O)c(-c2ccc(O)c(O)c2)oc2cc(O)ccc12 [fisetin],anti-inflammatory effects
12,O=C1c2ccc(O)cc2O[C@H](c2ccc(O)c(O)c2)[C@H]1O [fustin],anti-inflammatory effects
13,O=c1c(-c2ccc(O)cc2)coc2cc(O)cc(O)c12 [genistein],anti-inflammatory effects
14,O=c1c(O)c(-c2ccc(O)cc2)oc2cc(O)cc(O)c12 [kaempferol],anti-inflammatory effects
15,O=c1cc(-c2ccc(O)c(O)c2)oc2cc(O)cc(O)c12 [luteolin],anti-inflammatory effects
16,O=C1C[C@@H](c2ccc(O)cc2)Oc2cc(O)cc(O)c21 [naringenin],anti-inflammatory effects
17,Cc1cc(C(C)(C)C)c(O)c(C)c1CC1=NCCN1 [oxymetazoline],anti-inflammatory effects
18,O=c1c(O)c(-c2ccc(O)c(O)c2)oc2cc(O)cc(O)c12 [quercetin],anti-inflammatory effects
19,C[C@@H]1O[C@@H](OC[C@H]2O[C@@H](Oc3c(-c4ccc(OCCO)c(OCCO)c4)oc4cc(OCCO)cc(O)c4c3=O)[C@H](O)[C@@H](O)[C@@H]2O)[C@H](O)[C@H](O)[C@H]1O [troxerutin],anti-inflammatory effects

# Reference: patent publication US20170042883A1, “Methods for Detecting and Treating Rhinovirus Infection” (The Procter & Gamble Company, priority 2011, published 2017)
